According to paper PMC8092647, “Assessment of carbapenems in a mouse model of Mycobacterium tuberculosis infection” (PLoS ONE, 2021):
“Also recorded” adds a separate entry of the source. Like-named read-outs stand apart in the source and are kept apart here.

Key:
M. tuberculosis H37Rv [1] = assay: Minimum inhibitory concentration (MIC) by micro broth dilution, read by visual inspection of the bacterial pellet after 14 d; assay type: cell-based; details: Mycobacterium tuberculosis, 336 h
M. tuberculosis = system: M. tuberculosis; parameters: method as in Chambers et al. [7] (imipenem), Kumar et al. [6] (biapenem); details: acute M. tuberculosis infection model in mice; ref Chambers et al. [7] (imipenem), Kumar et al. [6] (biapenem); cited from earlier work
[2] = Mouse plasma pharmacokinetics after a single 25 mg/kg sc dose (LC-MS, non-compartmental model); details: for %T>MIC: female BALB/c mice, single 25 mg/kg sc, percentage of time above the MIC over 3 h; for AUC(0-t) / Cmax / half-life / concentration at 3 h: female, BALB/c, mouse, plasma, sc, 25 mg/kg
in vivo = details: female, BALB/c, mouse, sc, 25 mg/kg
[3] = female, BALB/c, mouse, in vivo, sc, 25 mg/kg
M. tuberculosis H37Rv [4] = assay: Sub-acute mouse model of M. tuberculosis infection, lung CFU burden; assay type: in vivo, BALB/c mice; details: for onset of activity in infected mice (reduction of lung burden at one week vs no-treatment group): 400 mg/kg bid sc + 75 mg/kg clavulanate, little or no reduction at one week; for efficacy in comparison (lung M. tuberculosis burden): 1 and 3 weeks
[5] = M. tuberculosis H37Rv, 7H9 broth without Tween-80, 14 d, drug alone without clavulanate, read-out: MIC
[6] = carbapenems 400 mg/kg bid sc + 75 mg/kg clavulanate, rifampin 10 mg/kg once daily orally

Structure (SMILES) | MIC (M. tuberculosis H37Rv [1]; [5]) | %T>MIC [2] | AUC(0-t) [2] | Cmax [2] | half-life [2] | onset of activity in infected mice (reduction of lung burden at one week vs no-treatment group) (M. tuberculosis H37Rv [4]) | MIC (M. tuberculosis H37Rv [1]; H37RV) | further results
C[C@@H](O)[C@H]1C(=O)N2C(C(=O)[O-])=C(SC3Cn4cnc[n+]4C3)[C@H](C)[C@H]12 (stereo partly drawn) [Biapenem, reference compound] | 2.5 to 5 µg/mL | 33–100% | 63300 ng·h/mL | 55600 ng/mL | 17.3 min | – | – | onset of activity in infected mice (M. tuberculosis): delayed activity
C[C@@H](O)[C@H]1C(=O)N2C(C(=O)O)=C(SCC(=O)OC(C)(C)C)[C@H](C)[C@H]12 [JSF-2196] | 2 to 4 µg/mL | – | – | – | – | – | – | AUC(0-t) (in vivo): 9060 ng·h/mL; Cmax (in vivo): 20500 ng/mL; half-life (in vivo): 13.8 min; %T>MIC [3]: 17–33%
CSC1=C(C(=O)[O-])N2C(=O)[C@H]([C@@H](C)O)[C@H]2[C@H]1C.[Na+] [JSF-2204, Sodium (4R,5S,6S)-6-((R)-1-hydroxyethyl)-4-methyl-3-(methylthio)-7-oxo-1-azabicyclo[3.2.0]hept-2-ene-2-carboxylate] | – | 33–100% | 23000 ng·h/mL | 63000 ng/mL | – | delayed activity | 0.25 to 0.5 µg/mL | efficacy in comparison (lung M. tuberculosis burden) (M. tuberculosis H37Rv [4]; [6]): efficacy equivalent to that of meropenem; also recorded: inferior to rifampin; also recorded: statistically indistinguishable efficacy; also recorded: statistically equivalent performance to meropenem
C[C@@H](O)[C@H]1C(=O)N2C(C(=O)O)=C(SCC(F)(F)F)[C@H](C)[C@H]12 [JSF-2415] | 4 to 8 µg/mL | – | – | – | – | – | – | AUC(0-t) (in vivo): 12500 ng·h/mL; Cmax (in vivo): 34800 ng/mL; half-life (in vivo): 14.5 min; %T>MIC [3]: 17–33%
C[C@@H](O)[C@H]1C(=O)N2C(C(=O)[O-])=C(SCCc3ccccc3)[C@H](C)[C@H]12.[Na+] [JSF-2417, Sodium (4R,5S,6S)-6-((R)-1-hydroxyethyl)-4-methyl-7-oxo-3-(phenethylthio)-1-azabicyclo[3.2.0]hept-2-ene-2-carboxylate] | – | 8.3–33% | 5740 ng·h/mL | 5190 ng/mL | 38.8 min | delayed activity | 2 to 4 µg/mL | efficacy in comparison (lung M. tuberculosis burden) (M. tuberculosis H37Rv [4]; [6]): inferior; concentration at 3 h [2]: 262 ng/mL
C[C@@H](O)[C@H]1C(=O)N2C(C(=O)[O-])=C(SCCC(=O)N3CCOCC3)[C@H](C)[C@H]12.[Na+] [JSF-2700, Sodium (4R,5S,6S)-6-((R)-1-hydroxyethyl)-4-methyl-3-((3-morpholino-3-oxopropyl)thio)-7-oxo-1-azabicyclo[3.2.0]hept-2-ene-2-carboxylate] | – | 8.3–33% | 5930 ng·h/mL | 17400 ng/mL | 15.5 min | – | 2 to 4 µg/mL | concentration at 3 h [2]: 6 ng/mL
C[C@@H](O)[C@H]1C(=O)N2C(C(=O)O)=C(S[C@@H]3CN[C@H](C(=O)N(C)C)C3)[C@H](C)[C@H]12 [Meropenem, reference compound] | 4 to 8 µg/mL | <8.3% | 613 ng·h/mL | 1340 ng/mL | 27.8 min | delayed activity | – | –
C[C@@H](O)[C@H]1C(=O)N2C(C(=O)O)=C(SCCN=CN)C[C@H]12 [imipenem] | – | – | – | – | – | – | – | onset of activity in infected mice (M. tuberculosis): delayed activity
CO[C@H]1/C=C/O[C@@]2(C)Oc3c(C)c(O)c4c(O)c(c(/C=N/N5CCN(C)CC5)c(O)c4c3C2=O)NC(=O)/C(C)=C\C=C\[C@H](C)[C@H](O)[C@@H](C)[C@@H](O)[C@@H](C)[C@H](OC(C)=O)[C@@H]1C [rifampin, reference compound] | – | – | – | – | – | – | – | effect on lung bacterial burden after one week of dosing (M. tuberculosis H37Rv [4]; rifampin 10 mg/kg once daily orally, 1 week): bacteriostatic effect; effect on lung bacterial burden after 3 weeks of dosing (M. tuberculosis H37Rv [4]; rifampin 10 mg/kg once daily orally, carbapenems 400 mg/kg bid sc + 75 mg/kg clavulanate, 3 weeks): bacteriostatic effect
